Source: patent US7902135B2, “Method of improving the ocular tolerance of foaming and/or detergent compositions for skin use” (Societe d'Exploitation de Produits pour les Industries …, priority 2006, dated 2011)

Test system: chorioallantoic membrane of the preincubated Leghorn hen's egg
Assay: HET-CAM (Hen's Egg Test ChorioAllantoic Membrane) test of ocular irritation potential
Conditions: for Classification of the concentrate tested: HET-CAM, active material concentration of 1%, pH 7, class by scale of the index I
From the text: The experimental protocol of this test is adapted from the Luepke publication (The Hen's Egg Test: “An Alternative Toxicity Test”, Brit. J. Dermato., 1986, 115. Suppl. 31, 133-135, Luepke N. P. & Kemper F. H. The HET-CAM Test: “An Alternative to the Draize Test”, Food Chem. Toxicol., 1986, 24, No. 6/7, 495-496), from the INVITTOX No. 47 protocol (1992, INVITTOX data bank, 34 Stoney Street, Nottingham, NG1 1NB, UK) and from Annex IV to the order published in the Official Journal of the French Republic of 26 Dec. 1996 relating to the official methods for the analysis of beauty products (NOR: FCEC9600217A).
This tests consists in assessing the irritation potential of a substance by reading the modifications observed after application of a solution of this substance to the richly vascularized chorioallantoic membrane of the preincubated Leghorn hen's egg.
The products were tested at an active material concentration of 1%. The solutions are prepared by diluting in deionized water at most 24 hours in advance.
The pH of the test solutions is adjusted to 7 with triethanolamine or lactic acid, if necessary.
On reception, the fertilized eggs are preincubated in an incubator for 10 days at 37.8° C.±0.5° C. with a degree of humidity in the incubator of 50% to 60%.
The shell of the eggs on which the tests are carried out is cut out around the air pocket and the chorioallantoic membrane is uncovered by carefully removing the shell membrane using tweezers.
0.3 cm^3 of the solution to be tested is deposited at the surface of the membrane. […]
By definition, if one of the phenomena has not appeared during these five minutes (300 seconds), it is recorded ti=301 seconds.
Each solution is tested on 4 to 6 eggs according to the repeatability of the reactions observed. The Het-Cam index I, representative of the test, is calculated for each egg tested in the following way: I=5×(301−t1)/300+7×(301−t2)/300+9×(301−t3)/300
The mean of the individual indices is subsequently calculated, along with the statistical uncertainty i: i=t·S/√n for a risk of 5% […]

With “Sodium lauryl ether (2.2 EO) sulfate [compound 1]” the “Classification of the concentrate tested” value was “Irritating (9 ≦ . . . I < 12)”, the “Classification of the concentrate tested” value (listed as comparative example 1) was “irritating” and the Het-Cam index (active material concentration of 1% in deionized water, pH adjusted to 7, 0.3 cm^3 on membrane, rinsed after 20 seconds, read over 5 minutes, mean of 4 to 6 eggs) was 10.7.
